Experiment [1] deals with T1, BRAFV600E full-length (amino acids 2-766) (Homo sapiens, UniProt P15056, V600E).
T1 construct: His6-tagged BRAFV600E full-length (amino acids 2-766); His6; made in house; host or cells: baculovirus expression system (insect cells)
In words: B-Raf Accelerated MEK ATPase assay (BRAMA). Conditions: categorized. In kind it is biochemical. Put shortly: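 Coupled-enzyme readout: ADP generated by MEK-mediated ATP hydrolysis, uncoupled from ERK phosphorylation, is linked to NADH oxidation through pyruvate kinase and lactate dehydrogenase.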

The test system of experiment [2] is Human melanoma cancer cells (SK-MEL-28). In words: Cell growth inhibition assay (CellTiter-Glo), SK-MEL-28. In kind it is cell-based. (Cellular ATP, detected with luciferase, serves as a proxy for viable cell number.)
Experiment [3] deals with Human colon tumor cells (Colo205). In words: Cell growth inhibition assay (CellTiter-Glo), Colo205. In kind it is cell-based. The method, boiled down:
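Growth is estimated from total cellular ATP measured by CellTiter-Glo luminescence after a 3-day compound exposure at 37 °C. Compounds are tested as 1:3 dilution series in 0.2% final DMSO, with inhibition expressed relative to vehicle-treated wells.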

[4] abbreviates: B-Raf Activity, Table 1a, highest pIC50 for the one or more runs.
[5] abbreviates: B-Raf pIC50, Table 1b, later runs, average pIC50 for the one or more runs.
Where [6] appears, read: SK-MEL-28, 72 h, Table 3a, 3 days incubation, read-out: Activity in SK-MEL-28 Tumor Cells.
Setting [7] is: SK-MEL-28, Table 3b, later runs, average for the one or more runs, categorized, read-out: IC50 for SK-MEL-28.
Where [8] appears, read: COLO 205, 72 h, Table 2a, 3 days incubation, read-out: Activity in Colo205 Tumor Cells.
Where [9] appears, read: COLO 205, Table 2b, later runs, average for the one or more runs, categorized, read-out: IC50 for Colo205.
The mark [10] stands for this setting: Table 1b, later runs, average pIC50 for the one or more runs, read-out: B-Raf pIC50 (converted).

The structures appear in SMILES notation. Structures can show the parent of a compound that is named as a salt. Where two headings read alike, the source gives them in different places.

This is an account of results in patent publication US7994185B2, “Benzene sulfonamide thiazole and oxazole compounds” (Glaxo Smith Kline LLC, priority 2008, dated 2011).

T1 sequence (P15056 2-766 V600E): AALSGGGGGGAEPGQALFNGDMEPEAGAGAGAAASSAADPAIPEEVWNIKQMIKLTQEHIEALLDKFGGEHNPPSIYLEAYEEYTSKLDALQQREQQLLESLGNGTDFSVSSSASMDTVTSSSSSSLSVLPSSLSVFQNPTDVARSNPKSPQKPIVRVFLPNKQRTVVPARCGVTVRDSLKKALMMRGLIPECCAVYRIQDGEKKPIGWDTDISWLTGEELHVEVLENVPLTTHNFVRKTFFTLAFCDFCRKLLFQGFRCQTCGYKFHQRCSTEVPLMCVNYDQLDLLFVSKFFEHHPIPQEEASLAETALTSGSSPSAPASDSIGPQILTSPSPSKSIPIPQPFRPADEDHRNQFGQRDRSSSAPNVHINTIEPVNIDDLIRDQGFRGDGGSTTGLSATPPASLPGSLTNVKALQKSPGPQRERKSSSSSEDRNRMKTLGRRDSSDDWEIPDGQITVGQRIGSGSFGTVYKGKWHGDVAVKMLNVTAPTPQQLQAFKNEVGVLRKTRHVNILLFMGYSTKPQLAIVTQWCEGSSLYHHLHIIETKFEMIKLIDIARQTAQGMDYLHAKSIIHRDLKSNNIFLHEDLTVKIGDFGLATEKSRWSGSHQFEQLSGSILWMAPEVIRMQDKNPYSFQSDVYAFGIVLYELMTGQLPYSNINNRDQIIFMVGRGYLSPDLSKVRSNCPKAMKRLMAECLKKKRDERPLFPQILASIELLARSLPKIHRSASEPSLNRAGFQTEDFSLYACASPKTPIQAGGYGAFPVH

Take `CC(C)c1nc(-c2cccc(NS(=O)(=O)c3cccnc3)c2)c(-c2ccnc(NCCS(C)(=O)=O)n2)s1` [Example 33, N-{3-[2-(1-Methylethyl)-5-(2-{[2-(methylsulfonyl)ethyl]amino}-4-pyrimidinyl)-1,3-thiazol-4-yl]phenyl}-3-pyridinesulfonamide]: the IC50 in experiment [1] (setting [4]) is below 100 nM; in experiment [1] (setting [5]), at most 3.16 nM; in experiment [2] (setting [6]), below 100 nM; in experiment [2] (setting [7]), below 100 nM; in experiment [3] (setting [8]), below 100 nM; in experiment [3] (setting [9]) it was below 100 nM.

For `CC(C)c1nc(-c2ccc(F)c(NS(=O)(=O)c3ccco3)c2)c(-c2ccnc(NCCS(C)(=O)=O)n2)s1` [Example 34, N-{2-Fluoro-5-[2-(1-methylethyl)-5-(2-{[2-(methylsulfonyl)ethyl]amino}-4-pyrimidinyl)-1,3-thiazol-4-yl]phenyl}-2-furansulfonamide trifluoroacetic acid salt], the IC50 in experiment [1] (setting [4]) was below 100 nM; in experiment [1] (setting [10]), 3.16 to 31.6 nM; in experiment [2] (setting [6]) it was above 1000 nM; in experiment [2] (setting [7]), 1000 to 10000 nM; in experiment [3] (setting [8]) it was above 1000 nM; in experiment [3] (setting [9]), 1000 to 10000 nM.

`CC(C)c1nc(-c2cccc(NS(=O)(=O)c3cnn(C)c3)c2)c(-c2ccnc(NCCS(C)(=O)=O)n2)s1` [Example 35, 1-Methyl-N-{3-[2-(1-methylethyl)-5-(2-{[2-(methylsulfonyl)ethyl]amino}-4-pyrimidinyl)-1,3-thiazol-4-yl]phenyl}-1H-pyrazole-4-sulfonamide trifluoroacetic acid salt]: the IC50 was below 100 nM in experiment [1] (setting [4]); 3.16 to 31.6 nM in experiment [1] (setting [10]); 100 to 1000 nM in experiment [2] (setting [6]); 100 to 1000 nM in experiment [2] (setting [7]); 100 to 1000 nM in experiment [3] (setting [8]); 100 to 1000 nM in experiment [3] (setting [9]).

As for `CC(C)c1nc(-c2ccc(F)c(NS(=O)(=O)c3cn(C)cn3)c2)c(-c2ccnc(NCCCS(C)(=O)=O)n2)s1` [Example 36, N-{2-Fluoro-5-[2-(1-methylethyl)-5-(2-{[3-(methylsulfonyl)propyl]amino}-4-pyrimidinyl)-1,3-thiazol-4-yl]phenyl}-1-methyl-1H-imidazole-4-sulfonamide], the IC50 was 100 to 1000 nM in experiment [1] (setting [4]), 31.6 to 1000 nM in experiment [1] (setting [5]), above 1000 nM in experiment [2] (setting [6]) and above 1000 nM in experiment [3] (setting [8]).

Consider `CC(C)c1nc(-c2cccc(NS(=O)(=O)N3CCOCC3)c2)c(-c2ccnc(NCCS(C)(=O)=O)n2)s1` [Example 37, N-{3-[2-(1-Methylethyl)-5-(2-{[2-(methylsulfonyl)ethyl]amino}-4-pyrimidinyl)-1,3-thiazol-4-yl]phenyl}-4-morpholinesulfonamide trifluoroacetic acid salt], for which the IC50 in experiment [1] (setting [4]) lay within 100 to 1000 nM; in experiment [1] (setting [5]), 31.6 to 1000 nM; in experiment [2] (setting [6]) it was 100 to 1000 nM; in experiment [2] (setting [7]), 100 to 1000 nM; in experiment [3] (setting [8]) it was 100 to 1000 nM; in experiment [3] (setting [9]), 100 to 1000 nM.

In the case of `COc1ccc(F)cc1S(=O)(=O)Nc1cccc(-c2nc(C(C)C)sc2-c2ccnc(NCC(C)C)n2)c1` [Example 38, 5-Fluoro-N-[3-(2-(1-methylethyl)-5-{2-[(2-methylpropyl)amino]-4-pyrimidinyl}-1,3-thiazol-4-yl)phenyl]-2-(methyloxy)benzenesulfonamide], the IC50 is 100 to 1000 nM in experiment [1] (setting [4]); 31.6 to 1000 nM in experiment [1] (setting [5]); above 1000 nM in experiment [2] (setting [6]); 1000 to 10000 nM in experiment [2] (setting [7]); above 1000 nM in experiment [3] (setting [8]); 1000 to 10000 nM in experiment [3] (setting [9]).

Regarding `Cc1ccccc1S(=O)(=O)Nc1cccc(-c2nc(C(C)C)sc2-c2ccnc(NCC(C)C)n2)c1F` [Example 39, N-[2-Fluoro-3-(2-(1-methylethyl)-5-{2-[(2-methylpropyl)amino]-4-pyrimidinyl}-1,3-thiazol-4-yl)phenyl]-2-methylbenzenesulfonamide], the IC50 is below 100 nM in experiment [1] (setting [4]); 3.16 to 31.6 nM in experiment [1] (setting [10]); 100 to 1000 nM in experiment [2] (setting [6]); 100 to 1000 nM in experiment [2] (setting [7]); 100 to 1000 nM in experiment [3] (setting [8]); 100 to 1000 nM in experiment [3] (setting [9]).

As for `CC(C)c1nc(-c2cccc(NS(=O)(=O)c3nccs3)c2F)c(-c2ccnc(NC3CCN(S(C)(=O)=O)CC3)n2)s1` [Example 40, N-{2-Fluoro-3-[2-(1-methylethyl)-5-(2-{[1-(methylsulfonyl)-4-piperidinyl]amino}-4-pyrimidinyl)-1,3-thiazol-4-yl]phenyl}-1,3-thiazole-2-sulfonamide], the IC50 was below 100 nM in experiment [1] (setting [4]); at most 3.16 nM in experiment [1] (setting [5]); 100 to 1000 nM in experiment [2] (setting [6]); 100 to 1000 nM in experiment [2] (setting [7]); 100 to 1000 nM in experiment [3] (setting [8]); 100 to 1000 nM in experiment [3] (setting [9]).

Turning to `CS(=O)(=O)N1CCC(Nc2nccc(-c3sc(N4CCOCC4)nc3-c3cccc(NS(=O)(=O)c4ccco4)c3F)n2)CC1` [Example 41, N-{2-Fluoro-3-[5-(2-{[1-(methylsulfonyl)-4-piperidinyl]amino}-4-pyrimidinyl)-2-(4-morpholinyl)-1,3-thiazol-4-yl]phenyl}-2-furansulfonamide], the IC50 in experiment [1] (setting [4]) is below 100 nM; in experiment [1] (setting [5]), at most 3.16 nM; in experiment [2] (setting [6]), below 100 nM; in experiment [2] (setting [7]), 100 to 1000 nM; in experiment [3] (setting [8]), below 100 nM; in experiment [3] (setting [9]) it was below 100 nM.

`CC(C)CNc1nccc(-c2sc(C(C)C)nc2-c2cccc(NS(=O)(=O)c3cccnc3)c2F)n1` [Example 42, N-[2-Fluoro-3-(2-(1-methylethyl)-5-{2-[(2-methylpropyl)amino]-4-pyrimidinyl}-1,3-thiazol-4-yl)phenyl]-3-pyridinesulfonamide]: the IC50 was below 100 nM in experiment [1] (setting [4]); at most 3.16 nM in experiment [1] (setting [5]); below 100 nM in experiment [2] (setting [6]); below 100 nM in experiment [2] (setting [7]); below 100 nM in experiment [3] (setting [8]); below 100 nM in experiment [3] (setting [9]).

As to `CC(C)CNc1nccc(-c2sc(N3CCOCC3)nc2-c2cccc(NS(=O)(=O)c3ccco3)c2F)n1` [Example 43, N-{2-fluoro-3-[5-{2-[(2-methylpropyl)amino]-4-pyrimidinyl}-2-(4-morpholinyl)-1,3-thiazol-4-yl]phenyl}-2-furansulfonamide], the IC50 in experiment [1] (setting [4]) was below 100 nM; in experiment [1] (setting [5]), at most 3.16 nM; in experiment [2] (setting [6]), 100 to 1000 nM; in experiment [2] (setting [7]) it was 100 to 1000 nM; in experiment [3] (setting [8]), 100 to 1000 nM; in experiment [3] (setting [9]), 100 to 1000 nM.

Turning to `COc1c(NS(=O)(=O)c2c(F)cccc2F)cccc1-c1nc(C(C)C)sc1-c1ccnc(NCC(C)C)n1` [Example 44, 2,6-Difluoro-N-[3-(2-(1-methylethyl)-5-{2-[(2-methylpropyl)amino]-4-pyrimidinyl}-1,3-thiazol-4-yl)-2-(methyloxy)phenyl]benzenesulfonamide], the IC50 is below 100 nM in experiment [1] (setting [4]); 3.16 to 31.6 nM in experiment [1] (setting [10]); above 1000 nM in experiment [2] (setting [6]); 1000 to 10000 nM in experiment [2] (setting [7]); above 1000 nM in experiment [3] (setting [8]); 1000 to 10000 nM in experiment [3] (setting [9]).

As for `CC(C)CNc1nccc(-c2sc(N3CCOCC3)nc2-c2cccc(NS(=O)(=O)c3cccnc3)c2F)n1` [Example 45, N-{2-Fluoro-3-[5-{2-[(2-methylpropyl)amino]-4-pyrimidinyl}-2-(4-morpholinyl)-1,3-thiazol-4-yl]phenyl}-3-pyridinesulfonamide], the IC50 was below 100 nM in experiment [1] (setting [4]); at most 3.16 nM in experiment [1] (setting [5]); 100 to 1000 nM in experiment [2] (setting [6]); 100 to 1000 nM in experiment [2] (setting [7]); 100 to 1000 nM in experiment [3] (setting [8]); 100 to 1000 nM in experiment [3] (setting [9]).

As to `CC(C)CNc1nccc(-c2sc(C(C)(C)C)nc2-c2ccc(F)c(NS(=O)(=O)c3c(F)cccc3F)c2)n1` [Example 46, N-[5-(2-(1,1-Dimethylethyl)-5-{2-[(2-methylpropyl)amino]-4-pyrimidinyl}-1,3-thiazol-4-yl)-2-fluorophenyl]-2,6-difluorobenzenesulfonamide], the IC50 in experiment [1] (setting [4]) is below 100 nM; in experiment [1] (setting [10]) it was 3.16 to 31.6 nM; in experiment [2] (setting [6]), 100 to 1000 nM; in experiment [2] (setting [7]) it was 100 to 1000 nM; in experiment [3] (setting [8]) it was 100 to 1000 nM; in experiment [3] (setting [9]), 100 to 1000 nM.

In the case of `COc1c(NS(=O)(=O)c2c(F)cccc2F)cccc1-c1nc(N2CCOCC2)sc1-c1ccnc(NCC(C)C)n1` [Example 47, 2,6-Difluoro-N-{2-(methyloxy)-3-[5-{2-[(2-methylpropyl)amino]-4-pyrimidinyl}-2-(4-morpholinyl)-1,3-thiazol-4-yl]phenyl}benzenesulfonamide], the IC50 in experiment [1] (setting [4]) is below 100 nM; in experiment [1] (setting [10]), 3.16 to 31.6 nM; in experiment [2] (setting [6]), 100 to 1000 nM; in experiment [2] (setting [7]), 100 to 1000 nM; in experiment [3] (setting [8]), 100 to 1000 nM; in experiment [3] (setting [9]) it was 100 to 1000 nM.

For the compound `Nc1nccc(-c2sc(N3CCOCC3)nc2-c2cccc(NS(=O)(=O)C3CCCCC3)c2F)n1` [Example 48, N-{3-[5-(2-Amino-4-pyrimidinyl)-2-(4-morpholinyl)-1,3-thiazol-4-yl]-2-fluorophenyl}cyclohexanesulfonamide], the IC50 in experiment [1] (setting [4]) was 100 to 1000 nM; in experiment [1] (setting [5]), 31.6 to 1000 nM; in experiment [2] (setting [6]), 100 to 1000 nM; in experiment [2] (setting [7]) it was 100 to 1000 nM; in experiment [3] (setting [8]), 100 to 1000 nM; in experiment [3] (setting [9]) it was 100 to 1000 nM.
